Results: US20250281424A1 (New York Blood Center, Inc, priority 2020, published 2025)

Target: T1, human PF4 (Homo sapiens, UniProt P02776)
T1 construct: PF4 is a 70 amino acid, lysine-rich 7.8 kDa platelet-specific protein; made in house; host or cells: Escherichia coli BL21DE3 pLysS (pT7-7) and/or Drosophila S2 cells
T1 sequence (P02776 32-101): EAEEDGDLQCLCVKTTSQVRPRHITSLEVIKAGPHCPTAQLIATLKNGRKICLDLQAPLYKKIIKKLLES
Assay: Inhibition of PF4 tetramer formation (BS3 cross-linking, SDS-PAGE)
Type: biochemical
Settings: for inhibition at 1 µM: 1 μM inhibitor; for inhibition at 1 µM / inhibition at 3 µM / inhibition at 5 µM / inhibition at 10 µM: read-out: % inhibition of PF4 tetramer formation at single concentration of inhibitor; for inhibition at 3 µM: 3 μM inhibitor (column A); for inhibition at 5 µM: 5 μM inhibitor; for inhibition at 10 µM: 10 μM inhibitor (column A); for IC50: read-out: IC50 of PF4 tetramer formation inhibition
Method in brief: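 Monomer, dimer, trimer and tetramer fractions were quantified by densitometry after reducing 12% SDS-PAGE of BS3-cross-linked (0.2 mM, 30 min, room temperature) PF4. Before cross-linking, 10 μg/ml E. coli-expressed human WT PF4 in PBS was exposed to compound for 15 min at 37° C or 60 min at room temperature; controls lacked compound.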

SMILES	inhibition at 1 µM	inhibition at 3 µM	inhibition at 5 µM	inhibition at 10 µM	IC50
CC(C)(C)OC(=O)N1CC[C@H]1C(=O)C1C(=O)c2ccc(Oc3ccc4c(c3)C(=O)C(C(=O)[C@@H]3CCN3C(=O)OC(C)(C)C)C4=O)cc2C1=O (stereo partly drawn) [Example 273, tert-butyl (2S)-2-[5-({2-[(2S)-1-[(tert-butoxy)carbonyl]azetidine-2-carbonyl]-1,3-dioxo-2,3-dihydro-1H-inden-5-yl}oxy)-1,3-dioxo-2,3-dihydro-1H-indene-2-carbonyl]azetidine-1-carboxylate]	20%	20%			
COCCNC(=O)C1C(=O)c2ccc(C(=O)c3ccc4c(c3)C(=O)C(C(=O)NCCOC)C4=O)cc2C1=O (centres unmarked) [Example 74, 5,5′-carbonylbis(n-(2-methoxyethyl)-1,3-dioxo-2,3-dihydro-1h-indene-2-carboxamide)]			19%	46%	
COCCC(=O)C1C(=O)c2ccc(S(=O)(=O)c3ccc4c(c3)C(=O)C(C(=O)CCOC)C4=O)cc2C1=O (centres unmarked) [Example 177, 2-(3-methoxypropanoyl)-5-{[2-(3-methoxypropanoyl)-1,3-dioxo-2,3-dihydro-1H-inden-5-yl]sulfonyl}-2,3-dihydro-1H-indene-1,3-dione]			0%	17%	
O=C(c1ccc2c(c1)C(=O)C(C(=O)C1CCC1)C2=O)c1ccc2c(c1)C(=O)C(C(=O)C1CCC1)C2=O (centres unmarked) [Example 299, 2-cyclobutanecarbonyl-5-(2-cyclobutanecarbonyl-1,3-dioxo-2,3-dihydro-1H-indene-5-carbonyl)-2,3-dihydro-1H-indene-1,3-dione]	32%	56%			
O=C(NC1CCC1)C1C(=O)c2ccc(Oc3ccc4c(c3)C(=O)C(C(=O)NC3CCC3)C4=O)cc2C1=O (centres unmarked) [Example 389, N-cyclobutyl-5-{[2-(cyclobutylcarbamoyl)-1,3-dioxo-2,3-dihydro-1H-inden-5-yl]oxy}-1,3-dioxo-2,3-dihydro-1H-indene-2-carboxamide]	31%	80%			
O=C(CC1CC1)C1C(=O)c2ccc(S(=O)(=O)c3ccc4c(c3)C(=O)C(C(=O)CC3CC3)C4=O)cc2C1=O (centres unmarked) [Example 149, 2-(2-cyclopropylacetyl)-5-{[2-(2-cyclopropylacetyl)-1,3-dioxo-2,3-dihydro-1H-inden-5-yl]sulfonyl}-2,3-dihydro-1H-indene-1,3-dione]			64%	53%	
O=C(NC1CC1)C1C(=O)c2ccc(C(c3ccc4c(c3)C(=O)C(C(=O)NC3CC3)C4=O)(C(F)(F)F)C(F)(F)F)cc2C1=O (centres unmarked) [Example 108, N-cyclopropyl-5-{2-[2-(cyclopropylcarbamoyl)-1,3-dioxo-2,3-dihydro-1H-inden-5-yl]-1,1,1,3,3,3-hexafluoropropan-2-yl}-1,3-dioxo-2,3-dihydro-1H-indene-2-carboxamide]					5400 nM
Cc1ccccc1C(=O)CCC(=O)C1C(=O)c2ccc(C(=O)c3ccc4c(c3)C(=O)C(C(=O)CCC(=O)c3ccccc3C)C4=O)cc2C1=O (centres unmarked) [Example 252, 2-[4-(2-methylphenyl)-4-oxobutanoyl]-5-{2-[4-(2-methylphenyl)-4-oxobutanoyl]-1,3-dioxo-2,3-dihydro-1H-indene-5-carbonyl}-2,3-dihydro-1H-indene-1,3-dione]	14%	37%			3000 nM
O=C(Cc1cccc(F)c1F)C1C(=O)c2ccc(Oc3ccc4c(c3)C(=O)C(C(=O)Cc3cccc(F)c3F)C4=O)cc2C1=O (centres unmarked) [Example 260, 2-[2-(2,3-difluorophenyl)acetyl]-5-({2-[2-(2,3-difluorophenyl)acetyl]-1,3-dioxo-2,3-dihydro-1H-inden-5-yl}oxy)-2,3-dihydro-1H-indene-1,3-dione]	11%	46%			
O=C(c1ccc2c(c1)C(=O)C(C(=O)NCCOCC(F)(F)F)C2=O)c1ccc2c(c1)C(=O)C(C(=O)NCCOCC(F)(F)F)C2=O (centres unmarked) [Example 67, 5,5′-carbonylbis(1,3-dioxo-n-(2-(2,2,2-trifluoroethoxy)ethyl)-2,3-dihydro-1h-indene-2-carboxamide)]			0%	20%	
CC(C)(C)OC(=O)NCCCC(=O)C1C(=O)c2ccc(S(=O)(=O)c3ccc4c(c3)C(=O)C(C(=O)CCCNC(=O)OC(C)(C)C)C4=O)cc2C1=O (centres unmarked) [Example 387, tert-butyl N-[4-(5-{[2-(4-{[(tert-butoxy)carbonyl]amino}butanoyl)-1,3-dioxo-2,3-dihydro-1H-inden-5-yl]sulfonyl}-1,3-dioxo-2,3-dihydro-1H-inden-2-yl)-4-oxobutyl]carbamate]	16%	52%			
CCCC(=O)C1C(=O)c2ccc(Oc3ccc4c(c3)C(=O)C(C(=O)CCC)C4=O)cc2C1=O (centres unmarked) [Example 321, 2-butanoyl-5-[(2-butanoyl-1,3-dioxo-2,3-dihydro-1H-inden-5-yl)oxy]-2,3-dihydro-1H-indene-1,3-dione]	17%	23%			
O=C(NC1CCOCC1)C1C(=O)c2ccc(S(=O)(=O)c3ccc4c(c3)C(=O)C(C(=O)NC3CCOCC3)C4=O)cc2C1=O (centres unmarked) [Example 368, N-(oxan-4-yl)-5-({2-[(oxan-4-yl)carbamoyl]-1,3-dioxo-2,3-dihydro-1H-inden-5-yl}sulfonyl)-1,3-dioxo-2,3-dihydro-1H-indene-2-carboxamide]	1%	45%			
CO[C@@H](C)C(=O)C1C(=O)c2ccc(S(=O)(=O)c3ccc4c(c3)C(=O)C(C(=O)[C@@H](C)OC)C4=O)cc2C1=O (stereo partly drawn) [Example 237, 2-[(2R)-2-methoxypropanoyl]-5-({2-[(2S)-2-methoxypropanoyl]-1,3-dioxo-2,3-dihydro-1H-inden-5-yl}sulfonyl)-2,3-dihydro-1H-indene-1,3-dione]	30%	37%			
O=C(c1ccc2c(c1)C(=O)C(C(=O)NC1CCOCC1)C2=O)c1ccc2c(c1)C(=O)C(C(=O)NC1CCOCC1)C2=O (centres unmarked) [Example 72, 5,5′-carbonylbis(1,3-dioxo-n-(tetrahydro-2h-pyran-4-yl)-2,3-dihydro-1h-indene-2-carboxamide)]			43%	52%	
CCCCC(=O)C1C(=O)c2ccc(S(=O)(=O)c3ccc4c(c3)C(=O)C(C(=O)CCCC)C4=O)cc2C1=O (centres unmarked) [Example 154, 5-[(1,3-dioxo-2-pentanoyl-2,3-dihydro-1H-inden-5-yl)sulfonyl]-2-pentanoyl-2,3-dihydro-1H-indene-1,3-dione]			100%	100%	1200 nM
O=C1c2ccc(Oc3ccc4c(c3)C(=O)C(C(=O)C3CCC3)C4=O)cc2C(=O)C1C(=O)C1CCC1 (centres unmarked) [Example 297, 2-cyclobutanecarbonyl-5-[(2-cyclobutanecarbonyl-1,3-dioxo-2,3-dihydro-1H-inden-5-yl)oxy]-2,3-dihydro-1H-indene-1,3-dione]	38%	100%			1740 nM
CC(C)(C)OC(=O)NCCC(=O)C1C(=O)c2ccc(C(=O)c3ccc4c(c3)C(=O)C(C(=O)CCNC(=O)OC(C)(C)C)C4=O)cc2C1=O (centres unmarked) [Example 268, tert-butyl N-(3-{5-[2-(3-{[(tert-butoxy)carbonyl]amino}propanoyl)-1,3-dioxo-2,3-dihydro-1H-indene-5-carbonyl]-1,3-dioxo-2,3-dihydro-1H-inden-2-yl}-3-oxopropyl)carbamate]	7%	25%			
